# Experimental data published in patent US11202787B2, “Use of ACTH in assessment and prophylactic treatment of hypokalemia associated with glucocorticoid receptor modulator treatment of Cushing's syndrome patients” (Corcept Therapeutics, Inc., priority 2018, dated 2021).
# Columns and labels:
# [1] = test system: subjects in an Alzheimer's study; assay: Alzheimer's study: hypokalemia; format: in vivo, human
# Source text: Clinically meaningful hypokalemia (≤3.1) has been reported in 16 of 821 (1.9%) mifepristone treated subjects (12 in completed double blind PMD trials, and 4 in a completed Alzheimer's trial), and in 5 of 626 (0.8%) placebo treated subjects in completed PMD trials.
# cortisol = assay: 24-hour urine cortisol during mifepristone treatment of Cushing's syndrome patients; format: in vivo, human; settings: Mean ± SD
# Experimental: (§1) The Cushing's syndrome study reported herein was conducted in accordance with the Declaration of Helsinki and Good Clinical Practice (GCP) according to International Conference on Harmonization (ICH) guidelines.
# (§2) Dosing Schedule Dosing was started with 300 mg of mifepristone once per day for 14 days. After 14 days, if no clinical improvement was seen but the drug was well tolerated, the dose of mifepristone was increased to 600 mg once per day. After 4 weeks of dosing at 600 mg once per day, if no clinical improvement was seen but the drug was well tolerated, the dose was increased to 900 mg once per day. Dose escalation was based on weight with the maximum dose no higher than 20 mg/kg/day. […] After 4 weeks of dosing at 900 mg once per day, if no clinical improvement was seen but the drug was well tolerated, the dose was increased to 1200 mg once per day. Study duration was 24 weeks.
# (§3) Potassium levels were obtained on every subject at either screening or the pre-drug administration baseline visit, and then also at every scheduled post-baseline visit. Potassium levels post-baseline were therefore obtained as early as day 7 and through day 210 (week 30 was the last visit and was the 6 week follow-up visit). ACTH, and cortisol were measured at six visits (week 2 (day 14), week 6 (day 42), week 10 (day 70), week 16 (day 112), and week 24 (day 168) week 6 follow-up (day 210)).
# [2] = test system: Cushing's syndrome patients; settings: cited from earlier work
# ACTH = ACTH levels during mifepristone treatment of Cushing's syndrome patients; format: in vivo, human; settings: for ACTH Visit Change Values from Baseline / Ratio of ACTH Visit Change Values from Baseline per Baseline (ACTH_CHG/ACTH Baseline): Mean ± SD
# Source text: The term “measuring the level,” in the context of cortisol, ACTH, mifepristone, or other compounds, refers to determining, detecting, or quantitating the amount, level, or concentration of, for example, cortisol, ACTH, mifepristone, or other compound in a sample obtained from a subject. Plasma or serum samples are often used for measuring ACTH or cortisol level.
# The types of samples that are suitable for ACTH determination can be serum, plasma, saliva, urine, or any other biological fluid taken from a subject. In preferred embodiments, the sample is a serum sample, or is a plasma sample. The level of ACTH can be measured using various methods, including but not limited to, immunoassays, e.g., competitive immunoassay, radioimmunoassay (MA), immunofluorometric enzyme assay, and ELISA; competitive protein-binding assays; liquid chromatography (e.g., HPLC); and mass spectrometry, e.g., high-performance liquid chromatography/triple quadrupole-mass spectrometry (LC-MS/MS). Commercial kits for measuring ACTH are readily available, e.g., from Mayo clinic (Test ID: ACTH), Siemens Healthcare Global (Immulite® 2000 ACTH assay), and Roche Molecular Diagnostics (Catalog No. 03255751190). In preferred embodiments, ACTH levels are measured using a radioimmunoassay (RIA), most preferable a two-site MA, such as performed by Quest Diagnostics (Secaucus, N.J. 07094).
# as §1, §2, §3
# [3] = Day 210 (6 week follow-up), Hypokalemic
# [4] = Day 210 (6 week follow-up), Non-Hypokalemic
structure (smiles),measurement,setting,value
"CC#C[C@]1(O)CC[C@H]2[C@@H]3CCC4=CC(=O)CCC4=C3[C@@H](c3ccc(N(C)C)cc3)C[C@@]21C [mifepristone, 11β-(4-dimethylaminophenyl)-17β-hydroxy-17α-(1-propynyl)-estra-4,9-dien-3-one]","Clinically meaningful hypokalemia (≤3.1), subjects",[1]; completed Alzheimer's trial,4
same,Hypokalemia in the range of 2.8 to 3.5 mEq/L,"[1]; out of 33 subjects, 300 mg per day for 16 weeks",9 subjects
same,24 Hour Urine Cortisol (nmol/24 hr)/ACTH Ratio Visit Values,"cortisol; Day 42, Hypokalemic",26.1 ± 18.4 (6)
same,24 Hour Urine Cortisol Visit Change Values from Baseline,"cortisol; Day 42, Hypokalemic",641 ± 3678 (6) nmol/24 hr
same,24 Hour Urine Cortisol Visit Values,"cortisol; Day 42, Hypokalemic",4373 ± 5347 (6) nmol/24 hr
same,24 Hour Urine Cortisol (nmol/24 hr)/ACTH Ratio Visit Values,"cortisol; Day 42, Non-Hypokalemic",7.9 ± 6.0 (35)
same,24 Hour Urine Cortisol Visit Change Values from Baseline,"cortisol; Day 42, Non-Hypokalemic",329 ± 967 (35) nmol/24 hr
same,24 Hour Urine Cortisol Visit Values,"cortisol; Day 42, Non-Hypokalemic",886 ± 1060 (35) nmol/24 hr
same,24 Hour Urine Cortisol (nmol/24 hr)/ACTH Ratio Visit Values,"cortisol; Day 70, Hypokalemic",33.5 ± 16.1 (6)
same,24 Hour Urine Cortisol Visit Change Values from Baseline,"cortisol; Day 70, Hypokalemic",4856 ± 4805 (6) nmol/24 hr
same,24 Hour Urine Cortisol Visit Values,"cortisol; Day 70, Hypokalemic",9132 ± 9321 (6) nmol/24 hr
same,24 Hour Urine Cortisol (nmol/24 hr)/ACTH Ratio Visit Values,"cortisol; Day 70, Non-Hypokalemic",17.0 ± 32.7 (30)
same,24 Hour Urine Cortisol Visit Change Values from Baseline,"cortisol; Day 70, Non-Hypokalemic",1045 ± 3500 (30) nmol/24 hr
same,24 Hour Urine Cortisol Visit Values,"cortisol; Day 70, Non-Hypokalemic",1696 ± 3387 (30) nmol/24 hr
same,24 Hour Urine Cortisol (nmol/24 hr)/ACTH Ratio Visit Values,"cortisol; Day 112, Hypokalemic",30.9 ± 31.0 (9)
same,24 Hour Urine Cortisol Visit Change Values from Baseline,"cortisol; Day 112, Hypokalemic",2916 ± 2593 (9) nmol/24 hr
same,24 Hour Urine Cortisol Visit Values,"cortisol; Day 112, Hypokalemic",3552 ± 2827 (9) nmol/24 hr
same,24 Hour Urine Cortisol (nmol/24 hr)/ACTH Ratio Visit Values,"cortisol; Day 112, Non-Hypokalemic",9.6 ± 16.3 (23)
same,24 Hour Urine Cortisol Visit Change Values from Baseline,"cortisol; Day 112, Non-Hypokalemic",104 ± 5293 (23) nmol/24 hr
same,24 Hour Urine Cortisol Visit Values,"cortisol; Day 112, Non-Hypokalemic",1314 ± 3351 (23) nmol/24 hr
same,24 Hour Urine Cortisol (nmol/24 hr)/ACTH Ratio Visit Values,"cortisol; Day 168, Hypokalemic",19.3 ± 9.5 (5)
same,24 Hour Urine Cortisol Visit Change Values from Baseline,"cortisol; Day 168, Hypokalemic",4128 ± 6624 (5) nmol/24 hr
same,24 Hour Urine Cortisol Visit Values,"cortisol; Day 168, Hypokalemic",5615 ± 5053 (5) nmol/24 hr
same,24 Hour Urine Cortisol (nmol/24 hr)/ACTH Ratio Visit Values,"cortisol; Day 168, Non-Hypokalemic",12.4 ± 15.5 (36)
same,24 Hour Urine Cortisol Visit Change Values from Baseline,"cortisol; Day 168, Non-Hypokalemic",512 ± 4575 (36) nmol/24 hr
same,24 Hour Urine Cortisol Visit Values,"cortisol; Day 168, Non-Hypokalemic",1444 ± 3127 (36) nmol/24 hr
same,24 Hour Urine Cortisol (nmol/24 hr)/ACTH Ratio Visit Values,cortisol; [3],11.5 ± 7.5 (3)
same,24 Hour Urine Cortisol Visit Change Values from Baseline,cortisol; [3],2497 ± 3776 (3) nmol/24 hr
same,24 Hour Urine Cortisol Visit Values,cortisol; [3],5129 ± 6335 (3) nmol/24 hr
same,24 Hour Urine Cortisol (nmol/24 hr)/ACTH Ratio Visit Values,cortisol; [4],12.5 ± 27.9 (35)
same,24 Hour Urine Cortisol Visit Change Values from Baseline,cortisol; [4],471 ± 2843 (35) nmol/24 hr
same,24 Hour Urine Cortisol Visit Values,cortisol; [4],1423 ± 6086 (35) nmol/24 hr
same,patients with serum potassium levels less than 3.5 mEq/L,[2]; of 43 Cushing's syndrome patients (ACTH-dependent and ACTH-independent),22 patients
same,patients with serum potassium levels less than 2.5 mEq/L (severe hypokalemia),[2]; of the 22 hypokalemic of 43 patients,3 patients
same,ACTH increase during mifepristone treatment,ACTH; 43 subjects with Cushing's disease,about two-fold
same,ACTH Visit Change Values from Baseline,"ACTH; Day 14, Hypokalemic",60.8 ± 99.6 (8) ng/L
same,Ratio of ACTH Visit Change Values from Baseline per Baseline (ACTH_CHG/ACTH Baseline),"ACTH; Day 14, Hypokalemic",1.87 ± 1.32 (8)
same,ACTH Visit Change Values from Baseline,"ACTH; Day 14, Non-Hypokalemic",30.6 ± 26.9 (38) ng/L
same,Ratio of ACTH Visit Change Values from Baseline per Baseline (ACTH_CHG/ACTH Baseline),"ACTH; Day 14, Non-Hypokalemic",1.77 ± 0.72 (38)
same,ACTH Visit Change Values from Baseline,"ACTH; Day 42, Hypokalemic",86.3 ± 58.2 (6) ng/L
same,Ratio of ACTH Visit Change Values from Baseline per Baseline (ACTH_CHG/ACTH Baseline),"ACTH; Day 42, Hypokalemic",2.50 ± 0.61 (6)
same,ACTH Visit Change Values from Baseline,"ACTH; Day 42, Non-Hypokalemic",40.6 ± 54.7 (35) ng/L
same,Ratio of ACTH Visit Change Values from Baseline per Baseline (ACTH_CHG/ACTH Baseline),"ACTH; Day 42, Non-Hypokalemic",2.02 ± 0.97 (35)
same,ACTH Visit Change Values from Baseline,"ACTH; Day 70, Hypokalemic",211.8 ± 147.5 (6) ng/L
same,Ratio of ACTH Visit Change Values from Baseline per Baseline (ACTH_CHG/ACTH Baseline),"ACTH; Day 70, Hypokalemic",4.08 ± 2.51 (6)
same,ACTH Visit Change Values from Baseline,"ACTH; Day 70, Non-Hypokalemic",49.2 ± 22.5 (30) ng/L
same,Ratio of ACTH Visit Change Values from Baseline per Baseline (ACTH_CHG/ACTH Baseline),"ACTH; Day 70, Non-Hypokalemic",2.06 ± 1.01 (30)
same,ACTH Visit Change Values from Baseline,"ACTH; Day 112, Hypokalemic",101.4 ± 159.6 (9) ng/L
same,Ratio of ACTH Visit Change Values from Baseline per Baseline (ACTH_CHG/ACTH Baseline),"ACTH; Day 112, Hypokalemic",2.53 ± 1.49 (9)
same,ACTH Visit Change Values from Baseline,"ACTH; Day 112, Non-Hypokalemic",70.2 ± 82.2 (23) ng/L
same,Ratio of ACTH Visit Change Values from Baseline per Baseline (ACTH_CHG/ACTH Baseline),"ACTH; Day 112, Non-Hypokalemic",2.47 ± 1.87 (23)
same,ACTH Visit Change Values from Baseline,"ACTH; Day 168, Hypokalemic",151.2 ± 166.5 (5) ng/L
same,Ratio of ACTH Visit Change Values from Baseline per Baseline (ACTH_CHG/ACTH Baseline),"ACTH; Day 168, Hypokalemic",3.30 ± 2.54 (5)
same,ACTH Visit Change Values from Baseline,"ACTH; Day 168, Non-Hypokalemic",48.2 ± 73.8 (37) ng/L
same,Ratio of ACTH Visit Change Values from Baseline per Baseline (ACTH_CHG/ACTH Baseline),"ACTH; Day 168, Non-Hypokalemic",2.08 ± 1.31 (37)
same,ACTH Visit Change Values from Baseline,ACTH; [3],113.7 ± 167.7 (3) ng/L
same,Ratio of ACTH Visit Change Values from Baseline per Baseline (ACTH_CHG/ACTH Baseline),ACTH; [3],1.36 ± 0.46 (3)
same,ACTH Visit Change Values from Baseline,ACTH; [4],13.4 ± 34.0 (37) ng/L
same,Ratio of ACTH Visit Change Values from Baseline per Baseline (ACTH_CHG/ACTH Baseline),ACTH; [4],1.33 ± 0.61 (37)
same,rise in ACTH levels following an initial increase in mifepristone dose (FIG. 1),ACTH; patients who did not experience hypokalemia,about 25 pg/mL
